Experimental data taken from paper PMC6792352, “Limited Chemical Structural Diversity Found to Modulate Thyroid Hormone Receptor in the Tox21 Chemical Library” (Environmental Health Perspectives, 2019).
Where a name gives a salt, the structure may show the parent alone.

Experiment: in vitro
Conditions: rat, gh3-tre-luc cells

SMILES | CC50 at 24 h (AC50 (uM) modified / 1000) [µM] | other results
CCCOc1cc(N)ccc1C(=O)OCCN(CC)CC [Propoxycaine hydrochloride] | > 20 | 
CCCOc1nn(C(=O)NS(=O)(=O)c2ccccc2C(=O)OC)c(=O)n1C [Propoxycarbazone-sodium] | > 90 | 
CCCOC(C)=O [Propyl acetate] | > 90 | 
CCCOC(=O)c1ccccc1 [Propyl benzoate] | > 90 | 
CCCOCCC [Propyl ether] | > 90 | 
CCCOC(=O)CC [Propyl propionate] | > 90 | 
CCCOC(=O)c1ccccc1O [Propyl salicylate] | > 50 | 
CCCN [Propylammonium nitrate] | > 90 | 
CCCc1ccccc1 [Propylbenzene] | > 90 | 
CC1COC(=O)O1 (stereo not drawn) [Propylene carbonate] | > 90 | 
CC(=O)OCC(C)OC(C)=O (stereo not drawn) [Propylene glycol diacetate] | > 90 | 
CCCCCCCCC(=O)OCC(C)OC(=O)CCCCCCCC (stereo not drawn) [Propylene glycol dipelargonate] | > 100 | 
CC1CN1 (stereo not drawn) [Propyleneimine] | > 90 | 
CCCOC(=O)c1ccc(O)cc1 [Propylparaben] | > 90 | 
Cc1c(C(C)C)c(=O)n(-c2ccccc2)n1C [Propyphenazone] | > 50 | 
C#CC(C)(C)NC(=O)c1cc(Cl)cc(Cl)c1 [Propyzamide] | > 90 | 
O=C(CCN1CCC(c2ccccc2)C1)c1ccc2c(c1)OCCO2 (stereo not drawn) [Proroxan] | 38.9 | 
C[C@@H]1O[C@@H](O[C@@H]2C=C3CC[C@@H]4[C@H](CC[C@]5(C)[C@@H](c6ccc(=O)oc6)CC[C@]45O)[C@@]3(C)CC2)[C@H](O)[C@H](O)[C@H]1O [Proscillaridin] |  | CC50 at 24 h (AC50 (uM) modified / 1000, Tox21_110001=Tox21_110442, viability, 1 nM T3 present, 24 h): > 20 µM
CCCSS/C(CCO)=C(/C)N(C=O)Cc1cnc(C)nc1N [Prosultiamine] | 22.5 | 
CCCSP(=S)(OCC)Oc1ccc(Cl)cc1Cl (stereo not drawn) [Prothiofos] |  | CC50 at 24 h (AC50 (uM) modified / 1000, Tox21_110001=Tox21_301219, viability, 1 nM T3 present, 24 h): > 90 µM
CCCc1cc(C(N)=S)ccn1 [Prothionamide] | > 50 | 

SMILES | CC50 at 24 h (AC50 (uM) modified / 1000) [µM] | other results
NC(=O)[C@@H]1CCCN1C(=O)[C@H](Cc1cnc[nH]1)NC(=O)[C@@H]1CCC(=O)N1 [Protirelin] | > 50 | 
C=CC1=C(C)c2cc3[nH]c(cc4nc(cc5[nH]c(cc1n2)c(C)c5CCC(=O)O)C(CCC(=O)O)=C4C)c(C)c3C=C [Protoporphyrin disodium] | > 50 | 
CNCCCC1c2ccccc2C=Cc2ccccc21 [Protriptyline hydrochloride] | 7.1 | 
CC(C)OC(=S)S [Proxan-sodium] | > 90 | 
CCC(c1ccccc1)c1noc(CCN(CC)CC)n1 (stereo not drawn) [Proxazole citrate] | > 50 | 
CC(O)Cn1cnc2c1c(=O)n(C)c(=O)n2C (stereo not drawn) [Proxyphylline] | > 20 | 
Cc1oc(=O)oc1CN1CCN(c2cc3c(cc2F)c(=O)c(C(=O)O)c2n3C(C)S2)CC1 (stereo not drawn) [Prulifloxacin] | > 50 | 
CN(C)CCc1c[nH]c2cccc(O)c12 [Psilocin] | > 90 | 
CN(C)CCc1c[nH]c2cccc(OP(=O)(O)O)c12 [Psilocybin] | > 90 | 
COc1ccc(C[C@H](N)C(=O)N[C@H]2[C@@H](O)[C@H](n3cnc4c(N(C)C)ncnc43)O[C@@H]2CO)cc1 [Puromycin dihydrochloride] | 11.2 | 
O=C1c2ccccc2C(=O)c2c(O)c(O)cc(O)c21 [Purpurin] | 71.9 | 
CC1=NNC(=O)N(/N=C/c2cccnc2)C1 [Pymetrozine] | > 90 | 
COC(=O)N(OC)c1ccccc1COc1ccn(-c2ccc(Cl)cc2)n1 [Pyraclostrobin] | 59.8 | 
CCOC(=O)COc1cc(-c2nn(C)c(OC(F)F)c2Cl)c(F)cc1Cl [Pyraflufen-ethyl] |  | CC50 at 24 h (AC50 (uM) modified / 1000, Tox21_110001=Tox21_300698, viability, 1 nM T3 present, 24 h): > 90 µM
CN1CCCN=C1/C=C/c1cccs1 [Pyrantel tartrate] | > 50 | 
c1ccc2c(c1)Sc1ccccc1N2CCN1CCCC1 [Pyrathiazine] | 19.5 | 
NC(=O)c1cnccn1 [Pyrazinamide] | > 90 | 
c1cnccn1 [Pyrazine] | > 90 | 
SCCc1cnccn1 [Pyrazineethanethiol] | > 90 | 
CSc1cnccn1 [Pyrazinyl methyl sulfide] | > 90 | 
CCOC(=O)c1cn2nc(OP(=S)(OCC)OCC)cc2nc1C [Pyrazophos] |  | CC50 at 24 h (AC50 (uM) modified / 1000, Tox21_110001=Tox21_301359, viability, 1 nM T3 present, 24 h): > 90 µM
